Measured values published in patent US20190076464A1, “CYTIDINE DEAMINASE INHIBITORS FOR THE TREATMENT OF PANCREATIC CANCER” (INSERM (OMSTOTIT NATIONAL DE LA SANTÉ ET DE LA RECHERCHE …, priority 2016, published 2019).

What was measured:
[1] = tested on: cancer cell proliferation; assay: Cancer cell proliferation, CDA targeting combined with metabolic inhibitor (FIG. 7); type: cell-based; settings: in combination with CDA targeting
Text: This finding opens several other combinatory therapeutic options as glutaminase (CB-839, FIG. 7) and α-KG dehydrogenase (CPI-613, a lipoate analog, inhibits mitochondrial enzymes pyruvate dehydrogenase (PDH) and α-KG dehydrogenase in NCI-H460 cell line, disrupts tumor cell mitochondrial metabolism) inhibitors are being evaluated clinically for PDA subjects^53.

pancreatic cancer cells [2] = assay: Tumor metabolism (NAD+/NADH ratio) under pharmacological inhibition of CDA (FIG. 6C); type: cell-based, human; settings: CDA inhibitor alone, FIG. 6C (NAD+/NADH ratio)
Text: Accordingly, we measure the glycolytic flux in CDA-deficient cells and the expression of key proteins involved in glycolysis in response to CDA targeting.

pancreatic cancer cells [3] = assay: Sensitization of pancreatic cancer cells to gemcitabine by pharmacological inhibition of CDA (FIG. 6A); type: cell-based, human; settings: in vitro, CDA inhibitor combined with gemcitabine
pancreatic cancer cells [4] = assay: Cell proliferation under pharmacological inhibition of CDA, without chemotherapy (FIG. 6B); type: cell-based, human; settings: CDA inhibitor alone
PDA = settings: in combination with gemcitabine, compared with gemcitabine alone, reference 6; cited from earlier work
[5] = tested on: gemcitabine-resistant cells; settings: reference 13; cited from earlier work

For `O=CC[C@@H](O)[C@H](O)[C@H](O)CO` [2-deoxy Glucose], which cancer cell proliferation [1] is on record?
Its cancer cell proliferation is “strongly inhibits cancer cell proliferation”.

Which results are given for `O=C1NCC=CCN1[C@@H]1O[C@H](CO)[C@@H](O)[C@H]1O` [DR, 1,3-diazepinone riboside]?
tumor metabolism (pancreatic cancer cells [2]): fails to alter; sensitization to gemcitabine (pancreatic cancer cells [3]): sensitizes pancreatic cancer cells to gemcitabine; cell proliferation (pancreatic cancer cells [4]): fails to alter cell proliferation

For `C#Cc1cccc(Nc2ncnc3cc(OCCOC)c(OCCOC)cc23)c1` [Erlotinib], which overall survival time (PDA) is on record?
The overall survival time was “only slightly increases overall survival time”.

Which sensitivity to gemcitabine [5] does the source give for `O=C1NC(O)CCN1[C@@H]1O[C@H](CO)[C@@H](O)[C@H]1O` (stereo partly shown) [THU, Tetrahydrouridine] here?
The sensitivity to gemcitabine was “increases the sensitivity to gemcitabine”.

Which cancer cell proliferation [1] does the source give for `O=C(Cc1cccc(OC(F)(F)F)c1)Nc1ccc(CCCCc2nnc(NC(=O)Cc3ccccn3)s2)nn1` [CB839] here?
The cancer cell proliferation was “strongly inhibits cancer cell proliferation”.
